In PubChem BioAssay (NCI) one finds GI50 and TGI data, which are given here for nine compounds.

“And” between values parts separate entries of the source, which are not always exact repeats. Equal values may be shown once.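 Five concentrations, 48 hours, 96-well plates. GI50 marks 50% less growth. TGI marks complete inhibition of growth.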 Some results are limits rather than exact numbers.

Among the test systems are PC-3 prostate; HCC-2998 colon; K-562 leukemia; IGROV1 ovarian; HS 578T breast; OVCAR-3 ovarian; SNB-19 CNS; SF-295 CNS.
Common to all, as to assay: NCI tumour cell line growth inhibition, 48 h

Turning to `N#CC1c2ccccc2C=CN1C(=O)CCCl` (centres undefined), the GI50 in the assay with PC-3 prostate was 14.1 µM; with HCC-2998 colon, 16.9 µM; with K-562 leukemia, 4.03 µM; in the assay on IGROV1 ovarian it was 6.68 µM; in the assay with HS 578T breast, 17.4 µM; in the assay on OVCAR-3 ovarian, 2.51 µM. The GI50 is 20.1 µM with SNB-19 CNS and 29.4 µM in the assay with SF-295 CNS. Besides, the TGI with PC-3 prostate stood at 28.5 µM; in the assay on HCC-2998 colon, 32 µM; in the assay on K-562 leukemia, 60 µM; in the assay with IGROV1 ovarian, 13.8 µM; in the assay on HS 578T breast, 47.3 µM; in the assay on OVCAR-3 ovarian it was 6.1 µM. For the same compound, the TGI in the assay on SNB-19 CNS is 52.9 µM; in the assay on SF-295 CNS, greater than 87.5 µM.
Regarding `CCN(CC)Cc1cc(Nc2nc(NC3CCC(N(C)C)CC3)c3ccccc3n2)ccc1OC` (centres undefined), the GI50 in the assay with PC-3 prostate is 6.97 µM; with HCC-2998 colon, 10.4 µM; in the assay on K-562 leukemia, 1.98 µM; in the assay on IGROV1 ovarian, 12.8 µM; with HS 578T breast, 0.677 µM; in the assay on OVCAR-3 ovarian, 11.6 µM. For the same compound, the GI50 with SNB-19 CNS was 8.6 µM; in the assay on SF-295 CNS, 2.33 µM. Also, the TGI was found to be 24.3 µM in the assay with PC-3 prostate; 22.2 µM in the assay on HCC-2998 colon; 5.23 µM in the assay with K-562 leukemia; 34.3 µM in the assay with IGROV1 ovarian; 14.5 µM in the assay with HS 578T breast; 24.7 µM in the assay on OVCAR-3 ovarian. For the same compound, the TGI in the assay on SNB-19 CNS is 22.6 µM; in the assay with SF-295 CNS it was 7.01 µM.
As for `Cn1nccc1Nc1nccc(-c2ccn([C@H](CO)c3ccc(Cl)c(F)c3)c(=O)c2)n1`, the GI50 was 43.6 µM in the assay on PC-3 prostate; 0.588 µM in the assay with HCC-2998 colon; 22.5 µM in the assay on K-562 leukemia; 22.9 µM in the assay with IGROV1 ovarian; 30.8 µM with HS 578T breast; 37.5 µM in the assay on OVCAR-3 ovarian. In addition, the GI50 is 27.6 µM with SNB-19 CNS and 76.3 µM in the assay with SF-295 CNS. The TGI in the assay with PC-3 prostate was greater than 100 µM; with HCC-2998 colon, 23.7 µM; in the assay on K-562 leukemia it was greater than 100 µM; in the assay with IGROV1 ovarian, greater than 100 µM; with HS 578T breast, greater than 100 µM; in the assay on OVCAR-3 ovarian, greater than 100 µM. For the same compound, the TGI with SNB-19 CNS and in the assay with SF-295 CNS was greater than 100 µM each time.
Turning to `O=C1c2cccc(Oc3ccccc3)c2C(=O)c2cccc(Oc3ccccc3)c21`, the GI50 with PC-3 prostate was greater than 100 µM; with HCC-2998 colon, greater than 100 µM; with K-562 leukemia it was greater than 100 µM; with IGROV1 ovarian, greater than 100 µM; with HS 578T breast it was 7.68 µM; in the assay with OVCAR-3 ovarian, greater than 100 µM. Also, the GI50 is 9.56 µM in the assay with SNB-19 CNS and 22.2 µM with SF-295 CNS. The TGI in the assay with PC-3 prostate, in the assay on HCC-2998 colon, in the assay on K-562 leukemia, in the assay with IGROV1 ovarian, in the assay with HS 578T breast and in the assay with OVCAR-3 ovarian was greater than 100 µM throughout. For the same compound, the TGI is 72.1 µM with SNB-19 CNS and greater than 100 µM with SF-295 CNS.
With `Cc1cccc(NC(=O)c2sc3nc4c(cc3c2N)C(=O)CCC4)c1`, the GI50 in the assay on PC-3 prostate is 0.397 µM; in the assay with HCC-2998 colon, 0.54 µM; with K-562 leukemia it was 0.105 µM; with IGROV1 ovarian it was 0.68 µM; with HS 578T breast it was 0.291 µM; in the assay with OVCAR-3 ovarian, 0.257 µM. Moreover, the GI50 is 0.464 µM with SNB-19 CNS and 0.194 µM in the assay on SF-295 CNS. Further, the TGI is greater than 48.1 µM with PC-3 prostate; greater than 100 µM in the assay with HCC-2998 colon; greater than 100 µM with K-562 leukemia; greater than 60.8 µM with IGROV1 ovarian; 12.9 µM in the assay with HS 578T breast; 1.18 µM in the assay with OVCAR-3 ovarian. Moreover, the values for the TGI with SNB-19 CNS and with SF-295 CNS were greater than 100 µM and greater than 47.6 µM, respectively.
Regarding `c1ccc(-c2[nH]ncc2-c2ccnc(-c3ccc(OCCn4ccnc4)cc3)c2)nc1`, the GI50 is 13.2 µM in the assay with PC-3 prostate; greater than 25 µM in the assay on HCC-2998 colon; 6.44 µM in the assay with K-562 leukemia; greater than 25 µM in the assay with IGROV1 ovarian; greater than 25 µM in the assay with HS 578T breast; 22.4 µM in the assay with OVCAR-3 ovarian. Moreover, the GI50 with SNB-19 CNS and with SF-295 CNS was greater than 25 µM throughout. Further, the TGI with PC-3 prostate, in the assay with HCC-2998 colon, in the assay on K-562 leukemia, with IGROV1 ovarian, in the assay with HS 578T breast and with OVCAR-3 ovarian was greater than 25 µM each time. Also, the TGI with SNB-19 CNS and with SF-295 CNS was greater than 25 µM each time.
`Cn1c([N+](=O)[O-])cnc1C=C1C(=O)c2ccccc2C1=O`: the GI50 in the assay on PC-3 prostate was 8.89 µM; with HCC-2998 colon, 13.5 µM; in the assay on K-562 leukemia, 3.34 µM; in the assay on IGROV1 ovarian, 3.56 µM; in the assay on HS 578T breast, 2.43 µM; in the assay on OVCAR-3 ovarian, 4.67 µM. For the same compound, the GI50 is 15.1 µM in the assay on SNB-19 CNS and 21.2 µM with SF-295 CNS. The TGI in the assay on PC-3 prostate was determined as 28.5 µM; with HCC-2998 colon, 32.2 µM; with K-562 leukemia it was 16.3 µM; with IGROV1 ovarian it was 18.5 µM; in the assay on HS 578T breast it was 8.71 µM; in the assay on OVCAR-3 ovarian, 14.8 µM. In addition, the figures for the TGI in the assay with SNB-19 CNS and with SF-295 CNS were 44.5 µM and 77.7 µM, respectively.
As to `Cc1nn(-c2ccc(Cl)cc2)c2ncnc(N/N=C/c3ccccc3O)c12`, the GI50 in the assay on PC-3 prostate is 1.09 µM and 0.568 µM; with HCC-2998 colon, 0.464 µM and 0.742 µM; with K-562 leukemia, 1.01 µM and 0.435 µM; with IGROV1 ovarian, 0.534 µM and 0.485 µM; with HS 578T breast it was 4.12 µM and 2.12 µM; with OVCAR-3 ovarian it was 0.38 µM and 0.278 µM. The GI50 in the assay with SNB-19 CNS is 1.08 µM and 0.604 µM; with SF-295 CNS, 0.841 µM and 1.12 µM. Besides, the TGI in the assay with PC-3 prostate is greater than 100 µM; with HCC-2998 colon, greater than 100 µM; with K-562 leukemia, greater than 100 µM; in the assay with IGROV1 ovarian, 10.5 µM and 8.48 µM; in the assay on HS 578T breast, greater than 88.1 µM; with OVCAR-3 ovarian, 19.7 µM and 29.4 µM. Further, the TGI in the assay with SNB-19 CNS was greater than 80.4 µM; in the assay on SF-295 CNS, 9.93 µM and 24.4 µM.
`Cc1ccc2c(-c3ccnc(Nc4ccc5c(c4)OCCO5)n3)c(-c3ccc(C(F)(F)F)cc3)nn2n1`: the GI50 in the assay with PC-3 prostate was 10.1 µM; in the assay with HCC-2998 colon it was 12.3 µM; in the assay with K-562 leukemia, 20.3 µM; in the assay with IGROV1 ovarian, 2.76 µM; in the assay with HS 578T breast, 12.4 µM; in the assay with OVCAR-3 ovarian, greater than 23.6 µM. The values for the GI50 with SNB-19 CNS and in the assay on SF-295 CNS were greater than 25 µM and 7.01 µM, respectively. The TGI with PC-3 prostate, in the assay with HCC-2998 colon, in the assay with K-562 leukemia, in the assay on IGROV1 ovarian, in the assay on HS 578T breast and in the assay on OVCAR-3 ovarian was greater than 25 µM throughout. Besides, the TGI in the assay on SNB-19 CNS and in the assay on SF-295 CNS was greater than 25 µM throughout.
